Data taken from patent US20060099712A1, “Correlation of anti-cancer activity of dyes with redox potentials” (Eastman Kodak Company, priority 2004, published 2006).

Test system: CX-1 Human Colon Carcinoma
Assay: Clonogenic dye screening assay, CX-1 cells (IC50)
Type: cell-based
Design: CX: unit not given here
Settings: for CX: CX-1 cells; for CV/C: selectivity ratio, value of 1 where dye inactive; for CV/CX (selectivity, kill ratio): ratio of IC50 in normal CV-1 line to IC50 in carcinoma CX-1 line; for CX (IC50 in the CX-1 cell line): 3 hrs treatment, colonies after 7-10 days, unit from method b117-118
How it was run: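 Cells seeded 16-30 h ahead (2000 CX-1 or 1000 CV-1 per well), exposed to serially diluted dyes for 3 h at 37 °C, rinsed three times, then grown into colonies. Eight-point curves spanned 0.32-0.0015 μg/mL (CX-1) and 3.2-0.025 μg/mL (CV-1). IC50 is the concentration killing 50% of cells.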

[1] = Table XXI, oxathiacarbocyanine nitrogen substituents
[2] = Table XVII, benzotellurazole derivatives
[3] = Table XVII, selectivity ratio of IC50 values
[4] = Table XVI, selectivity ratio of IC50 values

Compound: C=C(Br)C[n+]1c(/C=C/C=C2\Oc3ccccc3N2CC)sc2ccccc21 [R1=CC(Br)═C, R2=Et]
- CX [1]: 0.03
- CV/C (Table XXI): 33.3

Compound: CCN1/C(=C/C=C/c2sc3ccccc3[n+]2CC(=O)c2ccc(O)cc2O)Oc2ccccc21 [R1=CC(═0)Ph-2,4-OH, R2=Et]
- CX [1]: 0.3
- CV/C (Table XXI): >33.3

Compound: CCN1/C(=C/C=C/c2sc3ccccc3[n+]2CCC=O)Oc2ccccc21 [R1=CCC═0, R2=Et]
- CX [1]: 0.1
- CV/C (Table XXI): 50.0

Compound: CCN1C(=CC=c2sc(=Cc3sc4c([n+]3CC)CCCC4)n(CC)c2=O)Oc2ccccc21.[I-] (mixture of isomers) [Dye D-170]
- CV/CX (selectivity, kill ratio): 100.0

Compound: OCCN1C(=CC=Cc2sc3ccccc3[n+]2CCO)Sc2ccccc21 [drawing 36|CCOH|CCOH]
- CX (IC50 in the CX-1 cell line): >0.32 µg/mL
- CV/CX (selectivity, kill ratio): 10.0
- CV/CX (selectivity, kill ratio) (listed as N,N′-di(2-hydroxyethyl) dye): not active

Compound: CCN1/C(=C/C=C/c2sc3cc(Cl)ccc3[n+]2CC)Sc2cc(Cl)ccc21 [Dye D-105]
- CX (IC50 in the CX-1 cell line): 0.008 µg/mL
- Selectivity (Table 1, cell line not given, values equal CV/CX of Table II): 112.5
- CV/CX (selectivity, kill ratio): 112.5

Compound: CCN1C(=CC=Cc2[te]c3ccc(C)cc3[n+]2CC)[Te]c2ccc(C)cc21 [R=E, X=Te, Z1=5-Me, R2=H, Z2=5-Me]
- CX [2]: 0.052
- CV/CX [3]: 7.7

Compound: CC[n+]1c(/C=C/C=C2C=CC=CN2C)sc2ccccc21 [Dye 2-pyridine]
- CX (Table XVI, unsymmetrical dyes): 0.08
- CV/CX [4]: 50.0

Compound: CCN1/C(=C/C=C/c2sc3ccccc3[n+]2CC(N)=O)Oc2ccccc21 [R1=CC(═O)N, R2=Et]
- CV/C (Table XXI): >10.0

Compound: CCN1/C(=C/C=C/c2sc3ccccc3[n+]2CC(=O)N2CCOCC2)Oc2ccccc21 [drawing 37|CC(═O)morpholino|Et]
- CX (IC50 in the CX-1 cell line): >1.0 µg/mL
- CV/CX (selectivity, kill ratio): 10.0

Compound: CCN1C(=CC(=Cc2sc3ccccc3[n+]2CC)CSC(C)=O)Oc2ccccc21 [drawing 39|E|H|CSC(═O)C]
- CX (IC50 in the CX-1 cell line): 0.03 µg/mL
- CV/CX (selectivity, kill ratio): 33.3

Compound: CCN1C(=CC=c2sc(=Cc3sc4ccccc4[n+]3CC)n(CC)c2=O)Sc2ccccc21 [drawing 51|Et]
- CX (IC50 in the CX-1 cell line): 0.07 µg/mL
- CV/CX (selectivity, kill ratio): 22.8

Compound: CCN1/C(=C/C=C/c2sc3cc(Cl)ccc3[n+]2CC)Sc2cc(Cl)ccc21.[I-] [Dye D-164]
- CV/CX (selectivity, kill ratio): 112.5

Compound: CCN1C(=CC=Cc2oc3ccccc3[n+]2CC)Oc2ccccc21 [drawing 45|H|H]
- CX (IC50 in the CX-1 cell line): 0.10 µg/mL
- CV/CX (selectivity, kill ratio): 30.0

Compound: CN1/C(=C/C=C/c2sc3ccc4ccccc4c3[n+]2C)Sc2ccc3ccccc3c21 [drawing 43|M|H|H]
- CV/CX (selectivity, kill ratio): 10.0

Compound: CCN1C(=CC=Cc2sc3ccc(OC)cc3[n+]2CC)Sc2ccc(C)cc21 [drawing 41|Et|5-MeO|5-Me]
- CX (IC50 in the CX-1 cell line): 0.015 µg/mL
- CV/CX (selectivity, kill ratio): 13.3

Compound: CCSC(=Cc1sc2ccccc2[n+]1CC)C=C1Sc2ccccc2N1CC [drawing 38|E|H|Set|H]
- CX (IC50 in the CX-1 cell line): 0.04 µg/mL
- CV/CX (selectivity, kill ratio): 15.0

Compound: COc1ccc2ccc3c(c2c1)N(C)/C(=C/C=C/c1sc2ccc4ccc(OC)cc4c2[n+]1C)S3 [drawing 43|M|8-MeO|8-MeO]
- CX (IC50 in the CX-1 cell line): 0.02 µg/mL
- CV/CX (selectivity, kill ratio): 40.0

Compound: CCN1C=CC(=C/C=C/c2sc3ccccc3[n+]2CC)c2ccsc21 [4-thieno/2,3-b/pyridine]
- CX (Table XVI, unsymmetrical dyes): 0.04
- CV/CX [4]: 5.0

Compound: CCSC(CCN1/C(=C/C=C/c2sc3ccccc3[n+]2CCC(SCC)SCC)Sc2ccccc21)SCC [R1=CCC(SEt)2, R2=CCC(SEt)2]
- CX (Table XX, thiacarbocyanine nitrogen substituents): >0.32
- CV/CX (Table XX, ratio given a value of 1 where dye inactive): 4.1

Compound: CC(=Cc1sc2ccccc2[n+]1C)C=C1Sc2ccccc2N1C [drawing 38|M|H|Me|H]
- CX (IC50 in the CX-1 cell line): 0.02 µg/mL
- CV/CX (selectivity, kill ratio): 5.0

Compound: CCN1C(=CC=Cc2sc3cc(OC)ccc3[n+]2CC)Sc2cc(OC)ccc21 [drawing 41|Et|6-MeO|6-MeO]
- CX (IC50 in the CX-1 cell line): 0.01 µg/mL
- CV/CX (selectivity, kill ratio): 9.0

Compound: CCN1C(=CC=Cc2sc3ccc(Br)cc3[n+]2CC)Sc2ccc(Br)cc21 [drawing 41|Et|5-Br|5-Br]
- CX (IC50 in the CX-1 cell line): 0.04 µg/mL
- CV/CX (selectivity, kill ratio): 35.0

Compound: CCN1/C(=C/C=C/c2sc3ccccc3[n+]2CCNS(=O)(=O)c2ccc(C)cc2)Oc2ccccc21 [drawing 37|CCNSO2Ph-4C|Et]
- CX (IC50 in the CX-1 cell line): 0.3 µg/mL
- CV/CX (selectivity, kill ratio): 26.7

Compound: COc1cccc2c1CCC1=C2N(C)/C(=C/C=C/c2sc3c([n+]2C)-c2cccc(OC)c2CC3)S1 [drawing 43|M|4,5-H, 6-MeO|4,5-H, 6-MeO]
- CX (IC50 in the CX-1 cell line): 0.02 µg/mL
- CV/CX (selectivity, kill ratio): 0.75

Compound: CCN1C(=C/C=C/c2sc3ccccc3[n+]2C)C=Cc2ccccc21 [Dye 2-quinoline]
- CX (Table XVI, unsymmetrical dyes): <0.005
- CV/CX [4]: >20.0

Compound: CCN1C(=CC(C)=Cc2sc3ccccc3[n+]2CC)Sc2ccccc21 [drawing 38|E|H|Me|H]
- CV/CX (selectivity, kill ratio): 8.0

Compound: CCN1/C(=C/C=C/c2sc3cc(O)c(O)cc3[n+]2CC)Sc2ccccc21 [drawing 41|Et|5,5-OH|H]
- CV/CX (selectivity, kill ratio): 10.0

Compound: CCN(CC)C(=O)C[n+]1c(/C=C/C=C2\Oc3ccccc3N2CC)sc2ccccc21 [drawing 37|Cc(═0)N(Et)2|Et]
- CX (IC50 in the CX-1 cell line): 0.3 µg/mL
- CV/CX (selectivity, kill ratio): >33.3

Compound: CCN1C(=CC=Cc2sc3cc(OC)c(OC)cc3[n+]2CC)Sc2ccccc21 [drawing 41|Et|5,6-MeO|H]
- CX (IC50 in the CX-1 cell line): 0.02 µg/mL
- CV/CX (selectivity, kill ratio): 20.0

Compound: CCN1/C(=C/C=C/c2sc3ccccc3[n+]2CCC=NNS(=O)(=O)c2ccc(C)cc2)Oc2ccccc21 [drawing 37|CCC═NNSO2Ph-4C|Et]
- CX (IC50 in the CX-1 cell line): 0.3 µg/mL
- CV/CX (selectivity, kill ratio): 33.3

Compound: CCN1/C(=C/C=C/c2sc3ccccc3[n+]2CC)C(C)(C)c2ccccc21 [3H-indole (3,3-Me)]
- CX (Table XVI, unsymmetrical dyes): 0.16
- CV/CX [4]: 0.3

Compound: CCN1/C(=C/C=C/c2sc3c([n+]2C)CCCC3)Sc2ccccc21.[I-] [benzothiazole(4,5,6,7-H)]
- CX (Table XVI, unsymmetrical dyes): <0.005
- CV/CX [4]: >60.0

Compound: CCN1/C(=C/C=C/c2sc3ccccc3[n+]2CCNS(=O)(=O)c2ccc(C)cc2)Oc2ccccc21 [R1=CCNS02Ph-4C, R2=Et]
- CX [1]: 0.3
- CV/C (Table XXI): 26.7

Compound: CCN1/C(=C/C=C/c2sc3cc(C#N)ccc3[n+]2C)Sc2ccccc21 [drawing 41|M/E|6-CN|H]
- CX (IC50 in the CX-1 cell line): 0.16 µg/mL
- CV/CX (selectivity, kill ratio): 20.0

Compound: CC[n+]1c(/C=C/C=C2\Oc3ccccc3N2CC(F)(F)F)sc2ccccc21 [R1=Et, R2=CC(F)3]
- CX [1]: 0.1
- CV/C (Table XXI): 50.0

Compound: CCN1C(=CC=Cc2[te]c3ccccc3[n+]2CC)[Te]c2ccccc21 [drawing 46|Te|Te|H|H]
- CX (IC50 in the CX-1 cell line): 0.30 µg/mL
- CV/CX (selectivity, kill ratio): 16.7

Compound: CC[n+]1c(/C=C/C=C2\Oc3ccccc3N2CC(F)(F)F)sc2ccccc21 [drawing 37|Et|CC(F)3]
- CX (IC50 in the CX-1 cell line): 0.1 µg/mL
- CV/CX (selectivity, kill ratio): 50.0

Compound: CCN1/C(=C/C=C/c2sc3cc(OC)c(OC)cc3[n+]2CC)Oc2ccccc21 [drawing 44|E|5,6-MeO|H]
- CV/CX (selectivity, kill ratio): 12.5

Compound: CCOC(=O)c1ccc2c(c1)N(CC)/C(=C/C=C/c1oc3ccc(C(=O)OCC)cc3[n+]1CC)O2 [drawing 45|5-CO2Et|5-CO2Et]
- CX (IC50 in the CX-1 cell line): >.32 µg/mL
- CV/CX (selectivity, kill ratio): 10.0

Compound: CCN1/C(=C/C(=C/c2[te]c3ccc(C)cc3[n+]2CC)c2ccccc2)Sc2ccccc21 [R=E, X=S, Z1=5-Me, R2=Ph, Z2=H]
- CX [2]: 0.3
- CV/CX [3]: 30.0

Compound: CCN1/C(=C/C(C)=C/c2[te]c3ccc(C)cc3[n+]2CC)Sc2ccccc21 [R=E, X=S, Z1=5-Me, R2=Me, Z2=H]
- CX [2]: 0.03
- CV/CX [3]: 26.6

Compound: CCSC(=C\c1sc2ccc3ccccc3c2[n+]1CC)/C=C1\Oc2ccc3ccccc3c2N1CC [drawing 40|E|SEt]
- CX (IC50 in the CX-1 cell line): 0.04 µg/mL
- CV/CX (selectivity, kill ratio): 1.25

Compound: CCN(CC)C(=O)C[n+]1c(/C=C/C=C2\Oc3ccccc3N2CC)sc2ccccc21 [R1=CC(═0)N(Et)2, R2=Et]
- CX [1]: 0.3
- CV/C (Table XXI): >33.3

Compound: CC[n+]1c(/C(=C/C=C2\Oc3ccccc3N2C)Sc2ccccc2)sc2ccccc21 [drawing 39|M/E|SPh|H]
- CV/CX (selectivity, kill ratio): 3.0

Compound: CCN1/C(=C/C(=C/c2sc3ccccc3[n+]2CC)C(=S)SC)Sc2ccccc21 [drawing 38|E|H|C(═S)SC|H]
- CV/CX (selectivity, kill ratio): >10.0
